Laboratory results published in ChEMBL document CHEMBL3785092, “Synthesis and biological evaluation of novel tetrahydroisoquinoline-C-aryl glucosides as SGLT2 inhibitors for the treatment of type 2 diabetes” (Eur J Med Chem, 2016).

Target: T1, Sodium/glucose cotransporter 2 (Homo sapiens) (UniProt P31639)
T1 sequence (whole entry): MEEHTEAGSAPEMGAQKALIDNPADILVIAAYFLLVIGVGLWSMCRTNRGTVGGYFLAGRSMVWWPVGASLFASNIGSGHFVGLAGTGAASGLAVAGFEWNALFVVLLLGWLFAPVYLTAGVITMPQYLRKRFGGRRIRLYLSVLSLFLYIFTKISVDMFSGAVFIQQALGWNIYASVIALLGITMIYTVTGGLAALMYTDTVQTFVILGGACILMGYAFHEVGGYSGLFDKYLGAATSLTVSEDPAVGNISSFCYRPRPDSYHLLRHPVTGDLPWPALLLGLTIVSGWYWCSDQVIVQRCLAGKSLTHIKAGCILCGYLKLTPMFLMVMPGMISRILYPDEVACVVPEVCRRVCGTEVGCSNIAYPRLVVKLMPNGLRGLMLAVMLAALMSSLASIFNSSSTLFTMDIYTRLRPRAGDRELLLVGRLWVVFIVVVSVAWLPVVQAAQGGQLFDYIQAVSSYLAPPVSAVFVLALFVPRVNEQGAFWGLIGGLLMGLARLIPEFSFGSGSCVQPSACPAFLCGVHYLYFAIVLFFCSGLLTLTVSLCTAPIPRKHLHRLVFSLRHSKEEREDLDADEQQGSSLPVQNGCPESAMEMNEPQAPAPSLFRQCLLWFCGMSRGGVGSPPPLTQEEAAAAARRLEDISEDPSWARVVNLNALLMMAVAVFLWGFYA
Assay: Inhibition of human SGLT2 expressed in CHO cells assessed as reduction in [14C]AMG uptake at 10 uM after 1 hr by liquid scintillation counting method relative to control
Assay type: cell-based

Row | SMILES | inhibition
1 | CCOc1ccc(Cc2cc([C@@H]3O[C@H](CO)[C@@H](O)[C@H](O)[C@H]3O)ccc2Cl)cc1 | 85.4%
2 | COc1ccc(C[C@@H]2NCCc3ccc([C@@H]4O[C@H](CO)[C@@H](O)[C@H](O)[C@H]4O)cc32)cc1 | 32.1%
3 | OC[C@H]1O[C@@H](c2ccc3c(c2)[C@H](c2ccc4c(c2)OCO4)NCC3)[C@H](O)[C@@H](O)[C@@H]1O | 49.7%
